The target of data set [1] is T1, NK3 receptors (Homo sapiens, UniProt P29371).
T1 construct: expressed in transfected cells
T1 sequence (P29371 1-465): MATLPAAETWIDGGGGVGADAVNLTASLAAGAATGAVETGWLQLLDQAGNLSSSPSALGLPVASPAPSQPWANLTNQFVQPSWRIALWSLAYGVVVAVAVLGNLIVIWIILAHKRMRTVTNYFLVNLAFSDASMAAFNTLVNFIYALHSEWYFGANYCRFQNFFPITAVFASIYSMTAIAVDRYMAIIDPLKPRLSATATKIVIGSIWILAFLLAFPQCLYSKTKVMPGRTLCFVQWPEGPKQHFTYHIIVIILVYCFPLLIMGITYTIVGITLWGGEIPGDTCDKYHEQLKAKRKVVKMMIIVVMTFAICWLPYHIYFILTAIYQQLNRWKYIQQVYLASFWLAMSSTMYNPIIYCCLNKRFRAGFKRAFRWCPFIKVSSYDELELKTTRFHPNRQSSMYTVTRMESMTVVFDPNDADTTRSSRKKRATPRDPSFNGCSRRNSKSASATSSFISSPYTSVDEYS
Nature of the data set: Calcium ion fluidity (FLIPR) in cells with stable expression of NK3 receptors. The format is cell-based. The settings on record: calcium signal, antagonist mode, read-out: NK3R IC50 (nM) FLIPR. From the text: Determination of the Effect of the Compounds of the Present Invention on Calcium Ion Fluidity in Cells with Stable Expression of NK3 Receptors
Experimental objective: The objective of this test example was to determine the inhibitory effect of the compounds on NK3 receptors.
Experimental Methods: • 1. […] Probenecid and BSA were freshly added on the day of the experiment. The buffers for the experiments included dye buffer, compound dilution buffer and the like. • 2. […] The culture medium was discarded, and 20 μL of dye was added. The cells were incubated at 37° C. in the dark for 60 min, and then the calcium signal was read. • 4. The antagonist was prepared before the experiments. […] The plate was transferred to FLIPR, and 6× concentration of the agonist compound was added at 5 μL/well. The values were read and the data were saved by using FLIPR. The total assay volume was 30 μL, comprising 20 μL/well of dye buffer, 5 μL/well of 5× concentration of the experimental compound, and 5 μL/well of 6× concentration of the agonist compound.
The calcium signal value was read by FLIPR. The output of each sampling time point in the experiment was calculated as the ratio of the signals at wavelengths of 340/510 nm to 380/510 nm. The maximum minus minimum value was calculated from the ratio signal curve. The IC50 value of the compound was calculated by fitting the data of inhibition rate percentage and ten concentrations to the parametric nonlinear logistic equation by using GraphPad prism.

In data set [2] the target is T1, NK3 receptors. Nature of the data set: Antagonism of IP1 in HEK293 cells with stable expression of NK3. The format is cell-based. Conditions: agonist Senktide 3 nM, read-out: NK3R IC50 (nM) IP1. The method, then: Determination of the Effect of the Compounds of the Present Invention on IP1 in HEK293 Cells with Stable Expression of NK3
The objective of this test example was to determine the antagonism effect of the compounds on the activity of HEK293-NK3 cells.
3. Experimental Methods: • 1. […] HEK293-NK3 cell line was cultured in complete medium and seeded in the coated dishes at 37° C., 5% CO2 until 70%˜90% confluence. • 3. […] The cells were digested and resuspended in 1× Stimulation Buffer (IP-ONE Gq Kit), seeded into the 384-well cell culture plate (which contained the compound to be tested) at 5,000 cells/well/5 μL by using Multidrop Combi. The culture plate was centrifuged at 300 rpm at room temperature for 60 seconds, and then incubated at 37° C., 5% CO2 for 15 minutes. • 5. The cell culture plate was taken out from the CO2 incubator. […] The culture plate was centrifuged at 300 rpm at room temperature for 60 seconds, and then incubated at 37° C., 5% CO2 for 2 hours. • 6. The cell culture plate was taken out from the CO2 incubator. 5 μL of IP1 d2 reagent and then 5 μL of IP1 Tb Cryptate Antibody reagent were added by using Multidrop Combi. The culture plate was centrifuged at room temperature at 300 rpm for 60 seconds, and left to stand at room temperature for 1 hour. • 7. The plate was read by using EnVision Multilabel Reader, and data were collected at the same time.
The fluorescence signal ratio (Ratio) was read and collected by EnVision Multilabel Reader. According to the readings of the Low control (DMSO control) and High control (p)ositive compound) experimental groups, the antagonism percentage data were calculated as {% antagonism=(Ratio sample−Ratio low control)/(Ratio high control−Ratio low control)×100}.

The nature of data set [3]: Pharmacokinetic assay in SD rats (plasma and brain tissue). The format is in vivo. The settings on record: rat, po, male SD rats, p.o. 5 mg/kg; for AUC(0-t): read-out: Area under curve AUC0-t; for Tmax: read-out: Peak time tmax; for Cmax: read-out: Plasma concentration Cmax. The protocol:
Test Example 4. Pharmacokinetic Assays in SD Rats
SD rats were used as test animals. The in vivo (plasma and brain tissue) pharmacokinetic behavior of the compounds of the present invention was investigated by oral administration of the compound in rats at a dose of 5 mg/kg.
Male SD rats (21 animals per group), purchased from Shanghai JieSiJie Laboratory Animal Co., Ltd., under the Animal Production License Number of SCXK (Shanghai) 2013-0006 No. 311620400001794.
The experimental drug was dissolved in 0.5% CMC-Na (1% Tween 80) by sonication to formulate a clear solution or a homogeneous suspension.
After an overnight fast, male SD rats (21 animals per group) were administered p.o. with the experimental drug at an administration dose of 5 mg/kg and the administration volume of 10 mL/kg.
Rats were sacrificed with CO2 at 0, 0.5, 1, 2, 4, 8 and 24 hours before and after the drug administration. 8 mL of blood was collected by cardiac puncture, placed in EDTA-K2 tubes, and centrifuged at 4° C. at 6,000 rpm for 6 min. Plasma was separated and stored at −80° C. The whole brain tissue was dissected and weighed, and then placed in a 2 mL centrifuge tube and stored at −80° C.
2.6 Sample Processing: • 1) 160 μL of acetonitrile was added to 40 μL of plasma sample for precipitation. After mixing, the sample was centrifuged at 3500×g for 5-20 minutes. • 2) 90 μL of acetonitrile containing internal standard (100 ng/mL) was added to 30 μL of plasma or brain homogenate sample for precipitation. After mixing, the sample was centrifuged at 13,000 rpm for 8 minutes. • 3) 70 μL of water was added to 70 μL of treated supernatant, and mixed by vortex for 10 minutes. Then 20 μL of the sample was analyzed by LC/MS/MS to determine the concentration of the compound to be tested. The LC/MS/MS instrument for analysis was AB Sciex API 4000 Qtrap.
2.7 Liquid Chromatography Analysis: • Liquid chromatography conditions: Shimadzu LC-20AD pump • Chromatographic column: Agilent ZORBAX XDB-C18 (50×2.1 mm, 3.5 μm) Mobile phase: Eluent A was 0.1% formic acid in water, and Eluent B was acetonitrile. • Flow rate: 0.4 mL/min • Elution time: 0-4.0 minutes, the eluate was as follows:
The major pharmacokinetic parameters were calculated by using WinNonlin 6.1, and the results of the pharmacokinetic experiments in rats were shown in Table 3 below: […]

Data set [4] concerns Senktide-induced bilateral ovariectomy rats. Nature of the data set: Tail skin temperature in a Senktide-induced bilateral ovariectomy rat model. The format is in vivo. The settings on record: OVX SD rats, oral 30 mg/kg, 30 min before s.c. Senktide, tail skin temperature over 75 min. From the text:
Pharmacodynamic Study of the Test Compounds on Tail Skin Temperature in a Senktide-Induced Bilateral Ovariectomy Rat Model
To evaluate the effect of the test compounds on tail skin temperature in Senktide-induced bilateral ovariectomy rats.
2.3. Experimental Animals • Ten-Week-old female bilateral ovariectomy SD rats were purchased from Beijing Vital River Laboratory Animal Technology Co., Ltd. The animals were housed in a SPF grade animal facility with 5 SD rats per cage. The cages, bedding, feed and water were disinfected at high temperatures before use. All animals had free access to food and water.
Ten-week-old female SD rats were subjected to bilateral ovariectomy and recovered for two weeks, and then randomly divided into negative control group, model group and drug administration group (8 rats per group), based on body weight. The probe was attached to the dorsal surface of the rat tail with medical tape, 1-2 cm away from the tailhead of the rat.
The vehicle was administered orally to the negative control group and the model group, and different test compounds were administered orally to each drug administration group at a dose of 30 mg/kg and a volume of 10 mL/kg.
Thirty minutes after the oral administration of the vehicle or test compound, the negative control group was injected subcutaneously with normal saline (at a volume of 5 mL/kg); the model group and each drug administration group were injected subcutaneously with 0.2 mg/mL of Senktide (at a volume of 5 mL/kg) to induce the hot flashes-like symptom.
The change in tail skin temperature (ΔTST) at each time point relative to time point 0 was calculated, the ΔTST-time curve of the change in tail skin temperature was plotted, and the area under curve (AUCΔTST) was calculated. ΔTST=TSTn−TST0, TST0 is the tail skin temperature at 0 minute before the subcutaneous injection of normal saline or Senktide; TSTn is the tail skin temperature at the n minute after the subcutaneous injection.
AUCΔTST=Σ(ΔTSTn+ΔTSTn+5)*5/2

From US20230271969A1, “NITROGEN-CONTAINING FUSED RING DERIVATIVE INHIBITOR, PREPARATION METHOD THEREFOR AND USE THEREOF” (Shanghai Hansoh Biomedical Co., Ltd., priority 2020, published 2023) come the findings set out here.

Where two headings read alike, the source gives them in different places.

As a reminder, the IC50 is the concentration needed to halve the response being measured. For orientation: Tmax means the time from dosing to the highest level. In general, MRT refers to a mean duration of stay, worked out from the concentration-time curve.

Turning to `C[C@@H]1c2nnc(-c3nc4cc(F)c(F)cc4s3)n2CCN1C(=O)c1ccc(F)cc1` [Example 17, (R)-(3-(5,6-Difluorobenzo[d]thiazol-2-yl)-8-methyl-5,6-dihydro-[1,2,4]triazolo[4,3-a]pyrazin-7(8H)-yl)(4-fluorophenyl)methanone], the IC50 in data set [1] was 6.81 nM; in data set [2] it was 15.2 nM. For the same molecule, the AUC(0-t) in data set [3] (Brain) was determined as 3230 ng·h/mL; in data set [3] (Plasma), 46700 ng·h/mL. In addition, the values for the Tmax in data set [3] (Brain) and in data set [3] (Plasma) were 4 h and 6 h, respectively. For the same molecule, the Cmax in data set [3] (Brain) stood at 1120 ng/mL; in data set [3] (Plasma) it was 2300 ng/mL.
Take `Cc1nsc(-c2nnc3n2CCN(C(=O)c2ccc(F)cc2)[C@@H]3C)n1` [Fezolinetant]: the IC50 in data set [1] was 904 nM. The molecule also had an AUCΔTST in data set [4] of 116.7 ± 50.6 °C · min.
With `C[C@@H]1c2nnc(-c3nc(Cl)ns3)n2CCN1C(=O)c1ccc(Cl)cc1` [Example 57, (R)-(3-(3-Chloro-1,2,4-thiadiazol-5-yl)-8-methyl-5,6-dihydro-[1,2,4]triazolo[4,3-a]pyrazin-7(8H)-yl)(4-chlorophenyl)methanone], the IC50 in data set [1] amounted to 61 nM. In data set [2], the IC50 is 28.9 nM. For the same molecule, in data set [3] (Brain), the AUC(0-t) is 2340 ng·h/mL, the Tmax was 1 h and the Cmax turned out to be 670 ng/mL. For the same molecule, in data set [3] (Plasma), the AUC(0-t) came out at 7130 ng·h/mL, the Tmax is 2 h and the Cmax is 930 ng/mL. Also, the half-life in data set [3] (Plasma, read-out: Half life t1/2 (converted)) was 3.2 h. Moreover, the MRT in data set [3] (Plasma, read-out: Mean residence time MRT) is 4.8 h.
In the case of `C[C@@H]1c2nnc(-c3nc4cnc(Cl)cc4s3)n2CCN1C(=O)c1ccc(Cl)cc1` [Example 97, (R)-(4-Chlorophenyl)(3-(6-chlorothiazolo[4,5-c]pyridin-2-yl)-8-methyl-5,6-dihydro-[1,2,4]triazolo[4,3-a]pyrazin-7(8H)-yl)methanone], the IC50 in data set [1] came to 156 nM; in data set [2] it was 172 nM.
Regarding `C[C@@H]1c2nnc(-c3nc4ccc(F)cc4s3)n2CCN1C(=O)c1ccc(F)cc1` [Example 12, (R)-(3-(6-Fluorobenzo[d]thiazol-2-yl)-8-methyl-5,6-dihydro-[1,2,4]triazolo[4,3-a]pyrazin-7(8H)-yl)(4-fluorophenyl)methanone], the results for the IC50 in data set [1] and in data set [2] were 37 nM and 39.3 nM, respectively.
For `C[C@@H]1c2nnc(-c3nc4ccc(F)cc4s3)n2CCN1C(=O)c1ccc(Cl)c(Cl)c1` [Example 14, (R)-(3,4-Dichlorophenyl)(3-(6-fluorobenzo[d]thiazol-2-yl)-8-methyl-5,6-dihydro-[1,2,4]triazolo[4,3-a]pyrazin-7(8H)-yl)methanone], in that order: 97.6 nM and 41.9 nM.
Take `[2H]c1cc(C(=O)N2CCn3c(-c4nc5ccc(F)cc5s4)nnc3[C@H]2C)ccc1F` [Example 61, (R)-(3-(6-Fluorobenzo[d]thiazol-2-yl)-8-methyl-5,6-dihydro-[1,2,4]triazolo[4,3-a]pyrazin-7(8H)-yl)(4-fluorophenyl-3-d)methanone]: the IC50 in data set [1] came to 78.9 nM; in data set [2], 108 nM.
For `[2H]c1cc(C(=O)N2CCn3c(-c4nc5ccc(Cl)cc5s4)nnc3[C@H]2C)ccc1Cl` [Example 102, (R)-(3-(6-Chlorobenzo[d]thiazol-2-yl)-8-methyl-5,6-dihydro-[1,2,4]triazolo[4,3-a]pyrazin-7(8H)-yl)(4-chlorophenyl-3-d)methanone], in that order: 32.5 nM and 16.4 nM.
